# Legend:
# [1] = tested on: vincristine resistant murine leukemia P388/VCR; experiment: In vivo evaluation of MDR-1 reversal agents against vincristine resistant murine leukemia P388/VCR implanted IP in CDF1 mice; details: for % ILS: vs vincristine alone
# Experimental: Tumor cell ascites are harvested 5-7 days later. For drug testing, groups of 10-15 CDF1 mice (DBA/2×Balb/cF1 hybrids; Charles River Laboratories, Inc) are injected IP with 0.5 ml of diluted ascitic fluid containing 1×10^6 viable P388/VCR tumor cells. […] Drugs are administered once daily, by the IP, intravenous (IV) or oral route, starting one day after tumor implantation and using a variety of treatment schedules. Mice are weighed periodically, survival is recorded for 30 days post tumor implantation, and Mean survival times are calculated for all groups of mice. Statistical analysis of Mean survival times is carried out using the Student t-test.
# [2] = tested on: human epidermoid carcinoma KB/8.5; experiment: In vivo evaluation of MDR-1 reversal agents against human epidermoid carcinoma KB/8.5 implanted SC in athymic nude mice; design: species or system human (tumor in athymic nude mice)
# Experimental: The multiple drug resistant human epidermoid carcinoma KB/8.5 is propagated in medium containing colchicine (10 nanograms/ml) to maintain drug resistance. Colchicine is removed from the medium, for two cell passages, prior to subcutaneous (SC) implant of 8×10^6 KB/8.5 tumor cells into athymic "nude" mice (Harlan Sprague Dawley). […] Individual mouse tumor mass and mean tumor mass for each treatment group is determined on Day +14 and Day +21 of the test period. For each treatment group, the Relative Tumor Growth, RTG, is calculated as follows: [formula]
# Statistical analysis of Log Relative Tumor Growth is carried out using the Student t-test. Transformation of the data from absolute mean tumor mass (mgs tumor mass) to Log Relative Tumor Growth prior to statistical analysis has two beneficial effects:
# 1) it corrects the data for differences in mean tumor mass of the different treatment groups at the start of the test period (Day 0); and
# 2) the Log transformation of the data more adequately reflects the exponential growth pattern of the SC tumors and makes the use of the Student t-test more appropriate.
# [3] = vincristine 0.2 + compound 25 mg/kg, days 1-7, IP
# [4] = doxorubicin 8 mg/kg IV + compound 75 mg/kg/dose SC at -2 h and +2 h
# [5] = doxorubicin 8 mg/kg IV + compound 200 mg/kg/dose SC at -2 h and +2 h
# [6] = vincristine 0.2 + compound 6.3 mg/kg, days 1-7, IP
# [7] = doxorubicin 8 mg/kg IV + compound 25 mg/kg/dose SC at -2 h and +2 h
# [8] = doxorubicin 8 mg/kg IV + compound 50 mg/kg/dose SC at -2 h and +2 h
# [9] = doxorubicin 8 mg/kg IV + compound 100 mg/kg/dose SC at -2 h and +2 h
# [10] = vincristine 0.2 + compound 75 mg/kg, days 1-7, IP
# [11] = vincristine 0.2 + compound 100 mg/kg, days 1-7, ORAL
# [12] = vincristine 0.2 + compound 200 mg/kg, days 1-7, ORAL
# [13] = vincristine 0.4 + compound 25.0 mg/kg, days 1-3, IP
# [14] = vincristine 0.4 + compound 50.0 mg/kg, days 1-3, IP
# [15] = vincristine 0.2 + compound 50 mg/kg, days 1-7, IP
# [16] = doxorubicin 8 mg/kg IV + compound […] SC at -2 h and +2 h
# [17] = doxorubicin 8 mg/kg IV + compound 200 mg/kg/dose SC x2
smiles,measurement,setting,value
"COc1ccc(C(C#N)(CCCCCCN2CCc3cc(OC)c(OC)cc3C2)Sc2ccc(C)cc2)cc1OC (stereo not drawn) [Example 37, α-(3.4-Dimethoxyphenyl)-3,4-dihydro-6,7-dimethoxy-α-[(4-methylphenyl)thio]-2(1H)-isoqutnolineoctanenitrile]",MST,[1]; [3],14.7 days
same,% ILS,[1]; [3],+17%
"COc1ccc(C(C#N)(CCCCCCCCCCCN2CCc3cc(OC)c(OC)cc3C2)Sc2ccc(C)cc2)cc1OC (stereo not drawn) [Example 14, α-(3,4-Dimethoxyphenyl)-3,4-dihydro-6,7-dimethoxy α-[(4-methylphenyl)thio]-2(1H)-isoquinoline tridecanenitrile]",Relative Tumor Growth Day 21,[2]; [4],5.86
same,Relative Tumor Growth Day 21,[2]; [5],7.84
same,MST,[1]; [6],14.3 days
same,% ILS,[1]; [6],+14%
"COc1ccc2c(c1)CCN(CCCCCC(Sc1ccc(C)cc1)c1ccc(OC)c(OC)c1)C2 (centres unmarked) [Example 46, 2-[6-(3,4-Dimethoxyphenyl)-6-[(4-methylphenyl)thio]-hexyl]-1,2,3,4-tetrahydro-6-methoxyisoquinoline]",Relative Tumor Growth Day 21,[2]; [7],9.65
same,Relative Tumor Growth Day 21,[2]; [8],8.83
same,Relative Tumor Growth Day 21,[2]; [4],10.23
same,Relative Tumor Growth Day 21,[2]; [9],10.91
same,Relative Tumor Growth Day 21,[2]; [5],8.99
same,MST,[1]; [3],16.7 days
same,% ILS,[1]; [3],+36%
"COc1ccc(C(C#N)(CCCN2CCc3cc(OC)c(OC)cc3C2)Sc2ccc(C)cc2)cc1OC (stereo not drawn) [Example 3, α-(3,4-Dimethoxyphenyl)-3,4-dihydro-6,7-dimethoxy-α-[(4-methylphenyl)thio]-2(1H)-isoquinolinepentanenitrile]",Relative Tumor Growth Day 21,[2]; [8],8.38
same,Relative Tumor Growth Day 21,[2]; [9],8.87
same,MST,[1]; [10],16.7 days
same,MST,[1]; [11],15.8 days
same,MST,[1]; [12],16.4 days
same,MST,[1]; [13],15.6 days
same,MST,[1]; [14],16.3 days
same,% ILS,[1]; [10],+21%
same,% ILS,[1]; [11],+15%
same,% ILS,[1]; [12],+20%
same,% ILS,[1]; [13],+10%
same,% ILS,[1]; [14],+15%
"COC(=O)C(CCCN1CCc2cc(OC)c(OC)cc2C1)(Sc1ccc(C)cc1)c1ccc(OC)c(OC)c1 (stereo not drawn) [Example 12, α-(3,4-Dimethoxyphenyl)-3,4-dihydro-6,7-dimethoxy-α-[(4-methylphenyl)thio]-2(1H)-isoquinolinepentanoic acid methyl ester]",MST,[1]; [3],16.5 days
same,MST,[1]; [15],16.7 days
same,% ILS,[1]; [3],+9%
same,% ILS,[1]; [15],+11%
"COc1ccc(C(C#N)(CCCCCN2CCc3ccccc3C2)Sc2ccc(C)cc2)cc1OC (stereo not drawn) [Example 16, α-(3,4-Dimethoxyphenyl)-3,4-dihydro-α-[(4-methylphenyl)thio]-2(1H)-isoquinoline-2-heptanenitrile]",MST,[1]; [3],16.8 days
same,% ILS,[1]; [3],+11%
"COc1ccc(C(C#N)(CCN2CCc3cc(OC)c(OC)cc3C2)Sc2ccc(C)cc2)cc1OC (stereo not drawn) [Example 9, α-(3,4-Dimethoxyphenyl)-3,4-dihydro-6,7-dimethoxy-α-[(4-methylphenyl)thio]-2(1H]-isoquinolinebutanenitrile]",MST,[1]; [6],16.4 days
same,% ILS,[1]; [6],+10%
COc1ccc(C(C#N)(CCCCCN2CCc3cc4c(cc3C2)OCO4)Sc2ccc(C)cc2)cc1OC (centres unmarked) [Example 21],MST,[1]; [3],14.5 days
same,% ILS,[1]; [3],+16%
"COc1ccc(C(C#N)(CCCCCN2CCc3cc(OC)c(OCCn4ccnc4)cc3C2)Sc2ccc(C)cc2)cc1OC (stereo not drawn) [Example 33, α-(3,4-Dimethoxyphenyl)-3,4-dihydro-7-[2-(1H-imidazol-1-yl)ethoxy]-6-methoxy-α-[(4-methylphenyl)thio]-2(1H)-isoquinolineheptanenitrile]",MST,[1]; [3],15.6 days
same,MST,[1]; [15],16.6 days
same,% ILS,[1]; [3],+39%
same,% ILS,[1]; [15],+48%
"COc1ccc(C(CCCCCCN2CCc3cc(OC)c(OC)cc3C2)Sc2ccc(C)cc2)cc1OC (centres unmarked) [Example 50, 2-[7-(3,4-Dimethoxyphenyl)-7-[(4-methylphenyl)thio]-heptyl]-1,2,3,4-tetrahydro-6,7-dimethoxyisoquinoline]",Relative Tumor Growth Day 21,[2]; [7],7.86
same,Relative Tumor Growth Day 21,[2]; [8],8.76
same,Relative Tumor Growth Day 21,[2]; [9],7.08
same,Relative Tumor Growth Day 21,[2]; [5],6.87
same,Relative Tumor Growth Day 21,[2]; [16],10.30
"COc1cc2c(cc1OC)CN(CCCCCCC(Sc1ccccc1)c1ccccc1)CC2 (centres unmarked) [Example 112, 1,2,3,4-Tetrahydro-6,7-dimethoxy-2-[7-phenyl-7-(phenylthio]heptyl]isoquinoline]",MST,[1]; [3],16.3 days
same,MST,[1]; [15],14.2 days
same,% ILS,[1]; [3],+45%
same,% ILS,[1]; [15],+26%
"CC[C@]1(O)C[C@H]2CN(CCc3c([nH]c4ccccc34)[C@@](C(=O)OC)(c3cc4c(cc3OC)N(C=O)[C@H]3[C@@](O)(C(=O)OC)[C@H](OC(C)=O)[C@]5(CC)C=CCN6CC[C@]43[C@@H]65)C2)C1 [Vincristine, reference compound]",MST,"[1]; vincristine alone 0.6 mg/kg, days 1,2, IV",9.6 days
same,MST,"[1]; vincristine alone 0.8 mg/kg, days 1,2, IV",9.8 days
"COc1ccc(C(CCCCCCN2CCc3cc(OC)c(OC)c(OC)c3C2)Sc2ccc(C)cc2)cc1OC (centres unmarked) [Example 67, 2-[7-(3,4-Dimethoxyphenyl)-7-[(4-methylphenyl)thio]-heptyl]-1,2,3,4-tetrahydro-6,7,8-trimethoxyisoquinoline]",Relative Tumor Growth Day 21,[2]; [8],11.52
same,Relative Tumor Growth Day 21,[2]; [9],7.76
same,Relative Tumor Growth Day 21,[2]; [5],8.55
same,Relative Tumor Growth Day 21,[2]; [16],9.81
"CCC(CCCCCN1CCc2cc(OC)c(OC)cc2C1)(Sc1ccc(C)cc1)c1ccc(OC)c(OC)c1 (centres unmarked) [Example 78, 2-[6-(3,4-Dimethoxyphenyl)-6-[(4-methylphenyl)thio]-octyl]-1,2,3,4-tetrahydro-6,7-dimethoxyisoquinoline]",Relative Tumor Growth Day 21,[2]; [7],10.14
same,Relative Tumor Growth Day 21,[2]; [16],10.27
"COc1ccc(C(C#N)(CCCCCCCCN2CCc3cc(OC)c(OC)cc3C2)Sc2ccc(C)cc2)cc1OC (stereo not drawn) [Example 20, α-(3,4-Dimethoxyphenyl]-3,4-dihydro-6,7-dimethoxy-α-[(4-methylphenyl)thio]-2(1H)-isoquinolinedecanenitrile]",MST,[1]; [6],13.5 days
same,% ILS,[1]; [6],+8%
"COc1ccc(C(C#N)(CCCCCN2CCc3cc(OC)c(OC)cc3C2)SC2CCCCC2)cc1OC (stereo not drawn) [Example 62, α-(Cyclohexylthio)-α-(3,4-dimethoxyphenyl)-3,4-dihydro6,7-dimethoxy-2(1H)-isoquinolineheptane nitrile]",Relative Tumor Growth Day 21,[2]; [8],9.47
same,Relative Tumor Growth Day 21,[2]; [9],6.08
same,"toxicity remark (tox), Day 14",[2]; [17],tox
same,"toxicity remark (tox), Day 21",[2]; [17],tox
same,Relative Tumor Growth Day 21,[2]; [16],10.17
"COc1ccc(C(CCCCCCN2Cc3cc(OC)c(OC)cc3C2)Sc2ccc(C)cc2)cc1OC (centres unmarked) [Example 49, 2-[7-(3,4-Dimethoxyphenyl]-7-[(4-methylphenyl]thio]-beptyl]-2,3-dihydro-5,6-dimethoxy-1H-isotndole]",Relative Tumor Growth Day 21,[2]; [7],5.04
same,Relative Tumor Growth Day 21,[2]; [16],6.41
COc1cc2c(cc1OC)CN(CCCCCCC(Sc1ccc(C)cc1)c1ccc(OC)c(OCCn3ccnc3)c1)CC2 (centres unmarked) [Example 74],Relative Tumor Growth Day 21,"[2]; doxorubicin 8 mg/kg IV + compound 25 mg/kg/dose SC at -2 h and +2 h, listed as Ex-74",9.11
same,Relative Tumor Growth Day 21,"[2]; doxorubicin 8 mg/kg IV + compound 50 mg/kg/dose SC at -2 h and +2 h, listed as Ex-74",9.18
same,Relative Tumor Growth Day 21,"[2]; doxorubicin 8 mg/kg IV + compound […] SC at -2 h and +2 h, listed as Ex-74",9.00
COc1ccc2c(c1)CCN(CCCCCC(C#N)(Sc1ccc(C)cc1)c1ccc(OC)c(OC)c1)C2 (centres unmarked) [Example 22],MST,[1]; [6],15.2 days
same,% ILS,[1]; [6],+20%
"COc1ccc(C(CCCCCCN2CCc3cc(OC)c(OC)cc3C2)Sc2ccc(C)cc2)cc1O (centres unmarked) [Example 72, 5-[7-(3,4-Dihydro-6,7-dimethoxy-2(1H)-isoquinolinyl)-1[(4-methylphenyl)thio]heptyl]-2-methoxyphenol]",Relative Tumor Growth Day 21,[2]; [16],9.58
